# pIC50: −log10 of the molar value. Structures can show the parent of a compound that is named as a salt.
# Experiments:
# [1] = target: KRAS^G12D binding to c-Raf (Homo sapiens (Human), UniProt P01116, G12D); assay: SOS1-mediated binding of KRAS^G12D to effector protein c-Raf (TR-FRET); format: biochemical
# p-ERK in GP2D cells = assay: Assay of p-ERK inhibition in GP2D cells (HTRF); format: cell-based; conditions: Homo sapiens, 1 hour incubation
# Description: 2. Assay Process • 1) GP2D cells were inoculated in a transparent 96-well cell culture plate, and each well contained 80 μL of cell suspension and 8000 cells. The cell plate was inoculated in a carbon dioxide incubator at 37° C. overnight; • 2) 2 μL of the compound was weighed and added to 78 μL of the cell medium. After the mixture was mixed thoroughly, 20 μL of the solution of compound was weighed and added to the corresponding well of the cell plate. The cell plate was placed back to the carbon dioxide incubator and incubated for another 1 hour; • 3) After completion of the incubation, the cell supernatant was discarded. 50 μL of 1× cell lysate was added to each well. The mixture was incubated with shaking at room temperature for 30 minutes; • 4) Phospho-ERK1/2 Eu Cryptate antibody and Phospho-ERK1/2 d2 antibody were diluted 20-fold with detection buffer; • 5) 16 μL of cell lysate supernatant was weighed and added into each well of a new 384 white microwell plate, and then 2 μL of the diluted solution of Phospho-ERK1/2 Eu Cryptate antibody and 2 μL of the diluted solution of Phospho-ERK1/2 d2 antibody dilution were added. The mixture was incubated at room temperature for at least 4 hours; • 6) After completion of the incubation, HTRF was read with multi-label analyzer: excitation: 320 nm, emission: 615 nm, 665 nm; • 7). IC50 of the compounds to be assayed was calculated.
# KRAS^G12D = KRAS^G12D (Homo sapiens (Human), UniProt P01116, G12D); assay: Assay of the activity of inhibiting KRAS^G12D (TR-FRET, SOS/GTP nucleotide exchange); format: biochemical
# p-ERK in AGS cells = assay: Assay of p-ERK inhibition in AGS cells (HTRF); format: cell-based; conditions: Homo sapiens, 3 hours incubation
# Description: 1) AGS cells were inoculated in a transparent 96-well cell culture plate, and each well contained 80 μL of cell suspension and 10000 cells. The cell plate was inoculated in a carbon dioxide incubator at 37° C. overnight; • 2) After completion of the incubation, the cell supernatant was discarded. 80 μL of medium containing 0.02% serum was added to each well. The cell plate was incubated in a carbon dioxide incubator at 37° C. overnight; • 3) 2 μL of the compound was weighed and added to 78 μL of the cell medium. After the mixture was mixed thoroughly, 20 μL of the solution of compound was weighed and added to the corresponding well of the cell plate. The cell plate was placed back to the carbon dioxide incubator and incubated for another 3 hours; • 4) After completion of the incubation, the cell supernatant was discarded. 50 μL of 1× cell lysate was added to each well. The mixture was incubated with shaking at room temperature for 30 minutes; • 5) Phospho-ERK1/2 Eu Cryptate antibody and Phospho-ERK1/2 d2 antibody were diluted 20-fold with detection buffer; • 6) 16 μL of cell lysate supernatant was weighed and added into each well of a new 384 white microwell plate, and then 2 μL of the diluted solution of Phospho-ERK1/2 Eu Cryptate antibody and 2 μL of the diluted solution of Phospho-ERK1/2 d2 antibody dilution were added. The mixture was incubated at room temperature for at least 4 hours; • 7) After completion of the incubation, HTRF was read with multi-label analyzer: excitation: 320 nm, emission: 615 nm, 665 nm; • 8). IC50 of the compounds to be assayed was calculated.
# [2] = test system: KRAS G12D mutated GP2D cells; assay: Assay of inhibition of GP2D cell proliferation (CellTiter-Glo 3D); format: cell-based; conditions: Homo sapiens, 120 h, 5 days
# Description: The aim of this assay was to verify the inhibitory effect of the compounds of the present disclosure on the proliferation of KRAS G12D mutated GP2D human […] cancer cells.
# Cell line GP2D, DMEM medium, and penicillin/streptomycin antibiotics were purchased from Wisent; fetal bovine serum was purchased from Biosera; and CellTiter-Glo® 3D Cell Viability Assay (3D cell viability chemiluminescence assay reagent) reagent was purchased from Promega.
# GP2D cells were seeded in a 96-well U-bottom cell culture plate. Each well contained 80 μL of cell suspension containing 2000 GP2D cells. The cell plate was incubated overnight in a CO2 incubator. The compound to be assayed was serially diluted 5-fold with a pipette to the 8th concentration, i.e. diluted from 200 μM to 2.56 nM, to set up a double replicate well assay. 78 μL of medium was added to the middle plate, and then 2 μL per well of the gradient dilution compound was transferred to the middle plate according to the corresponding position. The mixture was mixed well and 20 μL per well was transferred to the cell plate. The concentration of compound transferred to the cell plate ranged from 1 μM to 0.0128 nM. The cell plate was incubated in a CO2 incubator for 5 days. At the end of the incubation of the plate with compounds added, 100 μL of cell viability chemiluminescence detection reagent per well was added to the plate and the plate was incubated at room temperature for 10 minutes to stabilize the luminescence signal. Reading was performed using a multi-label analyzer.
# The raw data were converted into an inhibition rate by using an equation (Sample−Min)/(Max−Min)*100%. IC50 value can be obtained by curve fitting with four parameters (“log(inhibitor) vs. response—Variable slope” model in GraphPad Prism).
# [3] = Pharmacokinetic evaluation of compounds in mice; format: in vivo, CD-1 mice; conditions: CD-1 male mice
# Description: Purpose of assay: To assay the pharmacokinetic data of the compounds in CD-1 mice in vivo.
# (§1) Compounds were mixed with vehicle 5% DMSO/95% (10% HP-β-CD aqueous solution), and the mixture was vortexed and sonicated to give 0.2 mg/mL-0.3 mg/mL clear solutions. CD-1 male mice aged 7 to 10 weeks were selected, and the candidate compound solution was administered intravenously. Whole blood was collected for a certain period of time to prepare the plasma. The drug concentration was analyzed by LC-MS/MS method and pharmacokinetic parameters were calculated by Phoenix WinNonlin software (Pharsight, USA).
# as §1, with “in water),” for “aqueous solution),”, “1.6 mg/mL to 4.0” for “0.2 mg/mL-0.3”, “orally administered.” for “administered intravenously.”, “prepare” for “prepare the”, “method,” for “method”
# plasma protein [4] = assay: Plasma protein binding (PPB), equilibrium dialysis, R plasma; format: in vitro ADME, rat; conditions: 2 μM, 4 hr dialysis
# Description: (§2) Assay procedure: 995 μL of blank plasma of various genera were weighed, and 5 μL of assay compound working solution (400 μM) or warfarin working solution (400 μM) was added so that the final concentrations of the assay compound and warfarin in plasma sample were each 2 μM. The samples were mixed thoroughly. The final concentration of DMSO (the organic phase) was 0.5%. 50 μL of the plasma samples of the assay compound and warfarin were pipetted to a sample receiving plate (in triplicate), and the corresponding volume of corresponding blank plasma or buffer was added immediately, so that the final volume in each sample well was 100 μL, wherein the volume ratio of plasma:dialysis buffer was 1:1. 500 μL of stop solution was then added to these samples. These samples were used as T0 samples for determination of recovery and stability. […] All samples were subjected to protein precipitation, and then analyzed by LC/MS/MS. Bound rate and recovery rate of protein were calculated using the following formulae: % Unbound=100*F/T % Bound=100−% Unbound, % Recovery=100*(F+T)/T0 (wherein F is the peak area ratio of the compound in the dialysate after 4 h of dialysis; T is the peak area ratio of the compound in the plasma after 4 h of dialysis; T0 is the peak area ratio of the compound in the plasma sample at time zero).
# plasma protein [5] = assay: Plasma protein binding (PPB), equilibrium dialysis, D plasma; format: in vitro ADME, dog; conditions: 2 μM, 4 hr dialysis
# Description: as §2
# plasma protein [6] = assay: Plasma protein binding (PPB), equilibrium dialysis, C plasma; format: in vitro ADME, monkey; conditions: 2 μM, 4 hr dialysis
# Description: as §2
# plasma protein [7] = assay: Plasma protein binding (PPB), equilibrium dialysis, H plasma; format: in vitro ADME, human; conditions: 2 μM, 4 hr dialysis
# Description: as §2
# plasma protein [8] = assay: Plasma protein binding (PPB), equilibrium dialysis, M plasma; format: in vitro ADME, mouse; conditions: 2 μM, 4 hr dialysis
# Description: as §2
# KRAS^G12D, sequence (P01116-2 other isoform, or with tags, fused parts or gaps G12D): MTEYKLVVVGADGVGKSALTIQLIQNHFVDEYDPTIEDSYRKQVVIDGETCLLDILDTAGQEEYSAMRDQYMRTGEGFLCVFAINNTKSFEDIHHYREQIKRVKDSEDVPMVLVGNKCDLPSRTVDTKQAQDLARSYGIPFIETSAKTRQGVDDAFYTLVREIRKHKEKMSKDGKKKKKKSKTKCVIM
# KRAS^G12D binding to c-Raf, sequence (P01116-2 other isoform, or with tags, fused parts or gaps G12D): as above
smiles,measurement,setting,value
"C#Cc1c(F)ccc2cc(N)cc(-c3c(Cl)cc4c(N5CC6CCC(C5)N6)nc(OC[C@@]56CCCN5C[C@H](F)C6)nc4c3F)c12 (single isomer, unassigned) [Compound 016B]",pIC50,[1],8.21
same,pIC50,p-ERK in GP2D cells,9.17
"Oc1cc(-c2c(Cl)cc3c(N4CC5CCC(C4)N5)nc(OC[C@@]45CCCN4C[C@H](F)C5)nc3c2F)c2ccccc2c1 (single isomer, unassigned) [Compound 027 hydrochloride]",pIC50,KRAS^G12D,7.41
Oc1cc(-c2c(Cl)cc3c(N4CC5CCC(C4)N5)nc(OC[C@@]45CCCN4C[C@H](F)C5)nc3c2F)c2ccccc2c1 [Compound 001 formate],pIC50,p-ERK in AGS cells,6.53
same,pIC50,KRAS^G12D,8.04
Nc1nc2c(-c3c(Cl)cc4c(N5CC6CCC(C5)N6)nc(OC[C@@]56CCCN5C[C@H](F)C6)nc4c3F)ccc(F)c2s1 [Compound 004],pIC50,p-ERK in AGS cells,7.50
same,pIC50,KRAS^G12D,9.30
Oc1cc(-c2ccc3c(N4CC5CCC(C4)N5)nc(OC[C@@]45CCCN4C[C@H](F)C5)nc3c2F)c2ccccc2c1 [Compound 005 hydrochloride],pIC50,p-ERK in AGS cells,6.83
same,pIC50,KRAS^G12D,10.00
CCc1c(F)ccc2cc(O)cc(-c3ccc4c(N5CC6CCC(C5)N6)nc(OC[C@@]56CCCN5C[C@H](F)C6)nc4c3F)c12 [Compound 006 hydrochloride],pIC50,p-ERK in AGS cells,7.17
same,pIC50,[2],8.69
Nc1nc2c(-c3c(F)cc4c(N5CC6CCC(C5)N6)nc(OC[C@@]56CCCN5C[C@H](F)C6)nc4c3Cl)ccc(F)c2s1 [Compound 007 hydrochloride],pIC50,KRAS^G12D,9.40
Oc1cc(-c2c(F)cc3c(N4CC5CCC(C4)N5)nc(OC[C@@]45CCCN4C[C@H](F)C5)nc3c2Cl)c2ccccc2c1 [Compound 008 hydrochloride],pIC50,KRAS^G12D,8.89
C#Cc1c(F)ccc2cc(O)cc(-c3ccc4c(N5CC6CCC(C5)N6)nc(OC[C@@]56CCCN5C[C@H](F)C6)nc4c3F)c12 [Compound 010 hydrochloride],AUCu,"[3]; PO, 5.54 mg/kg, AUCu = AUC0-inf *Unbound PPB (Mouse)",2.5 nM·h
same,AUC(0-inf),"[3]; mouse, plasma, PO, 5.54 mg/kg",125 nM·h
same,Cmax,"[3]; mouse, plasma, PO, 5.54 mg/kg",0.054 µM
same,bioavailability,"[3]; mouse, plasma, PO, 5.54 mg/kg",5.1%
same,half-life,"[3]; mouse, plasma, PO, 5.54 mg/kg",1.6 h
same,pIC50,p-ERK in GP2D cells,10.26
same,pIC50,[2],8.44
C#Cc1c(F)ccc2cc(O)cc(-c3ccc4c(N5CC6CCC(C5)N6)nc(OC[C@@]56CCCN5C[C@H](F)C6)nc4c3F)c12 [Compound 010],Unbound PPB R,plasma protein [4],1.3%
same,Unbound PPB D,plasma protein [5],2.2%
same,Unbound PPB C,plasma protein [6],1.9%
same,Unbound PPB H,plasma protein [7],2.9%
same,AUC(0-inf),"[3]; mouse, plasma, IV, 1.03 mg/kg",457 nM·h
same,C0,"[3]; mouse, plasma, IV, 1.03 mg/kg",0.712 µM
same,Vd,"[3]; mouse, plasma, IV, 1.03 mg/kg",25 L/kg
same,clearance,"[3]; mouse, plasma, IV, 1.03 mg/kg",3.68 L/h/kg
same,half-life,"[3]; mouse, plasma, IV, 1.03 mg/kg",8.1 h
same,Unbound PPB M,plasma protein [8],2.0%
Oc1cc(-c2ccc3c(N4CC5CCC(C4)N5)nc(OC[C@@]45CCCN4C[C@H](F)C5)nc3c2F)c2c(F)c(F)ccc2c1 [Compound 011 hydrochloride],pIC50,p-ERK in GP2D cells,10.80
same,pIC50,[2],8.21
N#Cc1c(N)sc2c(F)ccc(-c3c(Cl)cc4c(N5CC6CCC(C5)N6)nc(OC[C@@]56CCCN5C[C@H](F)C6)nc4c3F)c12 [Compound 012 formate],pIC50,p-ERK in GP2D cells,9.15
same,pIC50,[2],9.03
Nc1cc(-c2ccc3c(N4CC5CCC(C4)N5)nc(OC[C@@]45CCCN4C[C@H](F)C5)nc3c2F)c2c(F)c(F)ccc2c1 [Compound 013 hydrochloride],pIC50,p-ERK in GP2D cells,9.06
Cc1cc(N)nc(-c2c(Cl)cc3c(N4CC5CCC(C4)N5)nc(OC[C@@]45CCCN4C[C@H](F)C5)nc3c2F)c1C(F)(F)F [Compound 018 trifluoroacetate],pIC50,p-ERK in GP2D cells,8.80
Cc1cc(N)nc(-c2ccc3c(N4CC5CCC(C4)N5)nc(OC[C@@]45CCCN4C[C@H](F)C5)nc3c2F)c1C(F)(F)F [Compound 019 hydrochloride],pIC50,p-ERK in GP2D cells,7.67
Nc1nc2c(-c3c(F)cc4c(N5CC6CCC(C5)N6)nc(OC[C@@]56CCCN5C[C@H](F)C6)nc4c3F)ccc(F)c2s1 [Compound 020 formate],pIC50,KRAS^G12D,8.18
Cc1cc(N)c(F)c(-c2c(Cl)cc3c(N4CC5CCC(C4)N5)nc(OC[C@@]45CCCN4C[C@H](F)C5)nc3c2F)c1C(F)(F)F [Compound 022 formate],pIC50,p-ERK in GP2D cells,7.94
CCc1c(F)ccc2cc(O)cc(-c3ccc4c(N5CC6CCC(C5)N6)nc(OC[C@@]56CCCN5C[C@H](F)C6)nc4c3Cl)c12 [Compound 024 formate],pIC50,p-ERK in GP2D cells,8.36
same,pIC50,[2],7.80
C#Cc1c(F)ccc2cc(N)cc(-c3c(F)cc4c(N5CC6C=CC(C5)N6)nc(OC[C@@]56CCCN5C[C@H](F)C6)nc4c3F)c12 [Compound 034],pIC50,[1],7.65
